These results are taken from patent publication US8486948B2, “Piperazinodihydrothienopyrimidine derivatives” (Boehringer Ingelheim International GmbH, priority 2007, dated 2013).

Structures can show the parent of a compound that is named as a salt.

Sequence of PDE4B (Q07343 whole entry, species assumed): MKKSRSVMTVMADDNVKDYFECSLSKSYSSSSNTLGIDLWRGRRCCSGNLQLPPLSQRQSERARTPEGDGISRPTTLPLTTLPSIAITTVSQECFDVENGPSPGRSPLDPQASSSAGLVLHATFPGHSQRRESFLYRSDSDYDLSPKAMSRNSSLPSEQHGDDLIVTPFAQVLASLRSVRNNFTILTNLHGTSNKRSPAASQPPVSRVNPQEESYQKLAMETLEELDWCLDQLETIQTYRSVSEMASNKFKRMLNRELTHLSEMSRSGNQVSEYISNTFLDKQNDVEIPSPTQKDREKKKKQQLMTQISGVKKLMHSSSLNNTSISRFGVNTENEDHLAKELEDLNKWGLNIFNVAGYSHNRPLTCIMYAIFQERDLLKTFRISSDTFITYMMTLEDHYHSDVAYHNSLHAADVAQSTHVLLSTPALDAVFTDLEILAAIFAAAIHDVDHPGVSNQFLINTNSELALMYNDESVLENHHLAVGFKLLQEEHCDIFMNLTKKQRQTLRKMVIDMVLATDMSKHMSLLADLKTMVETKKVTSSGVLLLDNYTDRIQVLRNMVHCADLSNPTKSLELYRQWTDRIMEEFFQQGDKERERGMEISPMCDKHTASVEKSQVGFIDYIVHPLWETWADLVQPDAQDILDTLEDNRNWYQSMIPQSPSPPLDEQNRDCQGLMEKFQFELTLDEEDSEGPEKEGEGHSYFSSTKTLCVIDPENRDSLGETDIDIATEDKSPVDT

One assay concerns the target PDE4B (Homo sapiens, UniProt Q07343). The experiment in a line: Scintillation Proximity (SPA) assay, inhibition of PDE4B at 1 μM. In kind it is biochemical. Particulars: Table A; test substance 1 μM; one hour incubation with [H3]-cAMP at 30° C. The procedure: The inhibitions (in %) at 1 μM of the individual Example substances are included in the following Tables of Examples and were determined as follows:
The Scintilation Proximity (SPA) Assays (GE Healthcare, No. TRKQ7090) make use of the different affinities of cyclic 3″-5″-adenosine monophosphate (cAMP, low affinity) and linear 5′-adenosine monophosphate (AMP, high affinity) for yttrium silicate scintillator beads. The cAMP specific phosphodiesterase (PDE) PDE4B cleaves the 3′-phosphoester bond of the tritium-labelled [H3]-cAMP to form the [H3]-5′-AMP. Because of its higher affinity for the scintillator beads this [H3]-AMP accumulates on the beads and causes scintillation events (flashes of light) which are measured in a Wallac Microbeta Scintillation Counter.
The test starts with one hour's incubation of [H3]-cAMP with the PDE4B enzyme in assay buffer at 30° C., once with the Example substance that is to be tested (in a concentration of 1 μM) and once without the Example substance that is to be tested. After this incubation the reaction is stopped by the addition of the beads. The beads are given an opportunity to settle over the next 45 minutes, then they are measured in the Scintillation Counter. If the substance is capable of inhibiting the enzymatic activity of the PDE4B, less [H3]-AMP is formed during the incubation phase and fewer scintillation events can be measured.
(In general: SPA uses beads or plates that emit light when radiolabelled molecules are held near them.)
The inhibition is how much of the control response was suppressed. A high value points to a strong effect. As to `CC(C)[C@H](CO)Nc1nc(N2CCN(c3ccc(Cl)cc3)C[C@H]2C)nc2c1[S+]([O-])CC2` (stereo partly drawn) [Example 1, (R)-2-{2-[(R)-4-(4-chlorophenyl)-2-methylpiperazin-1-yl]-5-oxo-6,7-dihydro-5H-5λ^4-thieno[3,2-d]pyrimidin-4-ylamino}-3-methylbutan-1-ol], at 1 µM the inhibition was 84%.
`CC(C)[C@H](CO)Nc1nc(N2CCN(c3ccc(Cl)cc3)C[C@@H]2C)nc2c1[S+]([O-])CC2` (some centres unmarked) [Example 2] registered an inhibition at 1 µM of 94%.
`C[C@H]1CN(c2ccc(Cl)cc2)CCN1c1nc2c(c(N[C@H]3CCC(=O)N(C)C3)n1)[S+]([O-])CC2` (some centres unmarked) [Example 3] yielded an inhibition at 1 µM of 96%.
`C[C@H]1CN(c2ccc(Cl)cc2)CCN1c1nc2c(c(NC3CCOCC3)n1)[S+]([O-])CC2` (some centres unmarked) [Example 4] gave an inhibition at 1 µM of 95%.
Still for that read-out and setting: the figure for `C[C@H]1CN(c2ccc(Cl)cc2)CCN1c1nc2c(c(NC3(CO)CC3)n1)[S+]([O-])CC2` (some centres unmarked) [Example 5] is 95%; for `[O-][S+]1CCc2nc(N3CC4CC3CN4c3ccc(Cl)cc3)nc(NC3CCOCC3)c21` (centres unmarked) [Example 6] it is 95%; for `[O-][S+]1CCc2nc(N3CC4CC3CN4c3ccc(Cl)cc3)nc(Nc3cccc(F)c3)c21` (centres unmarked) [Example 7] it is 95%.
`[O-][S+]1CCc2nc(N3CC4CC3CN4c3ccc(Cl)cc3)nc(NC3(CO)CC3)c21` (centres unmarked) [Example 8] returned an inhibition at 1 µM of 95%.
Regarding `CN1C[C@@H](Nc2nc(N3C[C@H]4CC3CN4c3ccc(Cl)cc3)nc3c2[S+]([O-])CC3)CCC1=O` (stereo partly drawn) [Example 9, (S)-5-{2-[5-(4-chlorophenyl)-2,5-diazabicyclo[2,2,1]hept-2-yl]-5-oxo-6,7-dihydro-5H-5λ^4-thieno[3,2-d]pyrimidin-4-ylamino}-1-methylpiperidin-2-one], at 1 µM the inhibition was 96%.
Turning to `C[C@H]1CN(c2ccc(Cl)cc2)CCN1c1nc2c(c(Nc3cccc(F)c3)n1)[S+]([O-])CC2` (some centres unmarked) [Example 10], the inhibition at 1 µM came out at 94%.
On the same count and under the same terms, the figure for `O=C1CN(c2nc3c(c(NC4(CO)CC4)n2)[S+]([O-])CC3)CCN1c1ccc(Br)cc1` (centres unmarked) [Example 11] is 90%; for `O=C1CN(c2nc3c(c(NC4CCOCC4)n2)[S+]([O-])CC3)CCN1c1ccc(Br)cc1` (centres unmarked) [Example 12] it is 93%; for `O=C1CN(c2nc3c(c(NC4(CO)CC4)n2)[S+]([O-])CC3)CCN1c1cccc(Br)c1` (centres unmarked) [Example 13] it is 19%.
Compound `O=C1CN(c2nc3c(c(NC4CCOCC4)n2)[S+]([O-])CC3)CCN1c1cccc(Br)c1` (centres unmarked) [Example 14] returned an inhibition at 1 µM of 92%.
For `CC(C)[C@H](CO)Nc1nc(N2CCN(c3ccccc3)C(=O)C2)nc2c1[S+]([O-])CC2` (some centres unmarked) [Example 15], the inhibition at 1 µM is 77%.
As to `O=C1CN(c2nc3c(c(NC4(CO)CC4)n2)[S+]([O-])CC3)CCN1c1ccccc1` (centres unmarked) [Example 16], 1 µM produced 86% inhibition.
`CN1C[C@@H](Nc2nc(N3CCN(c4ccccc4)C(=O)C3)nc3c2[S+]([O-])CC3)CCC1=O` (some centres unmarked) [Example 17]: the inhibition at 1 µM came out at 96%.
`O=C1CN(c2nc3c(c(NC4CCOCC4)n2)[S+]([O-])CC3)CCN1c1ccccc1` (centres unmarked) [Example 18] gave an inhibition at 1 µM of 93%.
Still for that read-out and setting: with `O=C1CN(c2nc3c(c(Nc4cccc(F)c4)n2)[S+]([O-])CC3)CCN1c1ccccc1` (centres unmarked) [Example 19] the figure was 95%; with `[O-][S+]1CCc2nc(N3CC4CC3CN4c3ccc(Br)cc3)nc(NC3CCOCC3)c21` (centres unmarked) [Example 20], 95%.
The same measure, in the same setting: with `[O-][S+]1CCc2nc(N3C[C@H]4CC3CN4c3ccc(Br)cc3)nc(Nc3cccc(F)c3)c21` (some centres unmarked) [Example 21, {2-[5-(4-bromophenyl)-2,5-diazabicyclo[2,2,1]hept-2-yl]-5-oxo-6,7-dihydro-5H-5λ^4-thieno[3,2-d]pyrimidin-4-yl}-(3-fluorophenyl)-amine] the figure was 95%; with `[O-][S+]1CCc2nc(N3CC4CC3CN4c3ccc(Br)cc3)nc(NC3(CO)CC3)c21` (centres unmarked) [Example 22], 95%.
Same read-out and setting: with `[O-][S+]1CCc2nc(N3CC4CC3CN4c3cccc(F)c3)nc(NC3(CO)CC3)c21` (centres unmarked) [Example 23] the figure was 93%.
`[O-][S+]1CCc2nc(N3C[C@H]4CC3CN4c3ccc(F)cc3)nc(NC3(CO)CC3)c21` (some centres unmarked) [Example 24, (1-{2-[5-(4-fluorophenyl)-2,5-diazabicyclo[2,2,1]hept-2-yl]-5-oxo-6,7-dihydro-5H-5λ^4-thieno[3,2-d]pyrimidin-4-ylamino}-cyclopropyl)-methanol] registered an inhibition at 1 µM of 93%.
Still for that read-out and setting: with `[O-][S+]1CCc2nc(N3CC4CC3CN4c3cccc(F)c3)nc(NC3CCOCC3)c21` (centres unmarked) [Example 25] the figure was 94%; with `[O-][S+]1CCc2nc(N3CC4CC3CN4c3ccc(F)cc3)nc(NC3CCOCC3)c21` (centres unmarked) [Example 26], 94%; with `[O-][S+]1CCc2nc(N3C4CCC3CN(c3ccc(Br)cc3)C4)nc(NC3CCOCC3)c21` (centres unmarked) [Example 27], 97%.
`[O-][S+]1CCc2nc(N3C4CC[C@@H]3CN(c3ccc(Br)cc3)C4)nc(NC3(CO)CC3)c21` (some centres unmarked) [Example 28, (1-{2-[3-(4-bromophenyl)-3,8-diazabicyclo[3.2.1]oct-8-yl]-5-oxo-6,7-dihydro-5H-5λ^4-thieno[3,2-d]pyrimidin-4-ylamino}-cyclopropyl)-methanol trifluoroacetate]: the inhibition at 1 µM was found to be 97%.
Same read-out and setting: the figure for `[O-][S+]1CCc2nc(N3C[C@H]4CC3CN4c3nc4ccccc4o3)nc(NC3CCOCC3)c21` (some centres unmarked) [Example 29, [2-(5-benzoxazol-2-yl-2,5-diazabicyclo[2,2,1]hept-2-yl)-5-oxo-6,7-dihydro-5H-5λ^4-thieno[3,2-d]pyrimidin-4-yl]-(tetrahydropyran-4-yl)-amine] is 97%.

The assay is the same for the next values; noted with them: Table C; test substance 1 μM; one hour incubation with [H3]-cAMP at 30° C.
Regarding `CCOC(=O)c1cn2c(n1)CN(c1nc3c(c(NC4(CO)CC4)n1)[S+]([O-])CC3)CC2` (centres unmarked) [Example 30], the inhibition at 1 µM stood at 95%.
With `[O-][S+]1CCc2nc(N3CCn4c(nnc4-c4ccc(F)cc4)C3)nc(NC3(CO)CC3)c21` (centres unmarked) [Example 31], at 1 µM the inhibition was 93%.
As for `[O-][S+]1CCc2nc(N3CCn4c(Cc5ccc(Cl)c(Cl)c5)nnc4C3)nc(NC3(CO)CC3)c21` (centres unmarked) [Example 32], the inhibition at 1 µM is 91%.
As to `[O-][S+]1CCc2nc(N3CCn4cnnc4C3)nc(NC3(CO)CC3)c21` (centres unmarked) [Example 33, {1-[2-(5,6-DIHYDRO-8H-[1,2,4]TRIAZOLO[4,3-A]PYRAZIN-7-YL)-5-OXO-6,7-DIHYDRO-5H-5λ^4-THIENO[3,2-D]PYRIMIDIN-4-YLAMINO]-CYCLOPROPYL}-METHANOL TRIFLUORACETATE], testing at 1 µM gave an inhibition of 75%.
Same read-out and setting: with `CCOC(=O)c1cn2c(n1)CN(c1nc3c(c(NC4CCOCC4)n1)[S+]([O-])CC3)CC2` (centres unmarked) [Example 34] the figure was 95%; with `[O-][S+]1CCc2nc(N3CCn4c(nnc4-c4ccc(F)cc4)C3)nc(NC3CCOCC3)c21` (centres unmarked) [Example 35], 94%.
On the same count and under the same terms, with `[O-][S+]1CCc2nc(N3CCn4c(Cc5ccc(Cl)c(Cl)c5)nnc4C3)nc(NC3CCOCC3)c21` (centres unmarked) [Example 36] the figure was 93%; with `[O-][S+]1CCc2nc(N3CCn4cnnc4C3)nc(NC3CCOCC3)c21` (centres unmarked) [Example 37, [2-(5,6-DIHYDRO-8H-[1,2,4]TRIAZOLO[4,3-A]PYRAZIN-7-YL)-5-OXO-6,7-DIHYDRO-5H-5λ^4-THIENO[3,2-D]PYRIMIDIN-4-YL]-(TETRAHYDRO-PYRAN-4-YL)-AMINE TRIFLUOROACETATE], 87%; with `CCOC(=O)c1cn2c(n1)CN(c1nc3c(c(Nc4cccc(F)c4)n1)[S+]([O-])CC3)CC2` (centres unmarked) [Example 38], 95%.
The same measure, in the same setting: with `[O-][S+]1CCc2nc(N3CCn4c(nnc4-c4ccc(F)cc4)C3)nc(Nc3cccc(F)c3)c21` (centres unmarked) [Example 39, (3-fluorophenyl)-{2-[3-(4-fluorophenyl)-5,6-dihydro-8H-[1,2,4]triazolo[4,3-a]pyrazin-7-yl]-5-oxo-6,7-dihydro-5H-5λ^4-thieno[3,2-d]pyrimidin-4-yl}-amine] the figure was 95%; with `[O-][S+]1CCc2nc(N3CCn4c(Cc5ccc(Cl)c(Cl)c5)nnc4C3)nc(Nc3cccc(F)c3)c21` (centres unmarked) [Example 40, {2-[3-(3,4-dichlorobenzyl)-5,6-dihydro-8H-[1,2,4]triazolo[4,3-a]pyrazin-7-yl]-5-oxo-6,7-dihydro-5H-5λ^4-thieno[3,2-d]pyrimidin-4-yl}-(3-fluorophenyl)-amine], 94%; with `[O-][S+]1CCc2nc(N3CCn4cnnc4C3)nc(Nc3cccc(F)c3)c21` (centres unmarked) [Example 41, [2-(5,6-DIHYDRO-8H-[1,2,4]TRIAZOLO[4,3-A]PYRAZIN-7-YL)-5-OXO-6,7-DIHYDRO-5H-5λ^4-THIENO[3,2-D]PYRIMIDIN-4-YL]-(3-FLUOROPHENYL)-AMINE TRIFLUOROACETATE], 90%.
`CCOC(=O)c1cn2c(n1)CN(c1nc3c(c(N[C@@H](CO)C(C)C)n1)[S+]([O-])CC3)CC2` (some centres unmarked) [Example 42] yielded an inhibition at 1 µM of 94%.
Still for that read-out and setting: with `CC(C)[C@H](CO)Nc1nc(N2CCn3c(nnc3-c3ccc(F)cc3)C2)nc2c1[S+]([O-])CC2` (some centres unmarked) [Example 43] the figure was 88%; with `CC(C)[C@H](CO)Nc1nc(N2CCn3c(Cc4ccc(Cl)c(Cl)c4)nnc3C2)nc2c1[S+]([O-])CC2` (some centres unmarked) [Example 44], 78%.
